In patent US20190282600A1, “COMBINATION THERAPIES TARGETING TERT DEPENDENCY FOR CANCER THERAPY” (The Wistar Institute of Anatomy and Biology, priority 2018, published 2019):

Test system: NRAS mutant tumors (WM3000, M93-047)
Assay: NRAS mutant melanoma xenograft tumors in mice
Format: in vivo
Settings: for tumor growth: 6-Thio-dG 2.5 mg/kg i.p. q.d., single agent
Experimental: FIGS. 2a to 2c show NRAS^mut melanoma cells (FIG. 2a), BRAF-V600E/NRAS mutant cells derived from melanoma patients resistant to BRAF/MEK inhibitors (FIG. 2b), or non-transformed melanocytes and fibroblasts (FIG. 2c) were treated with 6-thio-dG for 7 days. Cell viability was measured by Alamar Blue assay and calculated relative to DMSO-treated cells. […] Cell death was assessed by PSVUe staining. Percent of apoptotic cells is shown. […] Mean TRF length expressed as kilobase pairs is indicated at the bottom. […] FIG. 2g provides a bar graph showing that DNA damage was assessed by γH2AX staining. Data represent average from three independent experiments ±SEM. *p<0.05; **p<0.01; ***p<0.005 in unpaired Student's t-test. As presented in FIG. 2h, mice bearing established WM3000 or M93-047 NRAS^mut tumors were treated with vehicle control or 6-thio-dG (2.5 mg/kg i.p; q.d). Tumor volume was measured and average tumor volume (n=4) ±SEM was plotted vs. time.
FIGS. 6a to 6e provide results showing that combining 6-thio-dG and Gamitrinib inhibits the growth of 3D melanoma spheroids and NRAS-mutant xenograft tumors. Collagen-embedded melanoma spheroids were treated with DMSO, 6-thio-dG (5 μM) and Gam (5 μM) as in FIGS. 4a to 4e. On day 7, spheroids were stained with Calcein AM (live cells; green) and EtBr (dead cells; red) and imaged using an inverted microscope (4X; scale bar=250 μm). […] P values were calculated using unpaired Student's t-test. *p<0.05, ** p<0.01, ***p<0.005, when comparing vehicle control vs. combination treatment groups. […] Kaplan Meier survival curves of mice treated for 14 days. p-values were calculated by Mantel-Cox log-rank test; *p<0.05, **p<0.01, ***p<0.005. Animal weight (grams) before treatment (Start of TX) and at the end of the study (End of TX) was assessed, recorded for every mouse enrolled in the study and plotted in FIG. 6e. […] Statistical significance was assessed by unpaired Student's t-test.
All animal experiments were performed in accordance with institutional guidelines. […] Tumor growth was measured twice weekly with digital calipers. […]

SMILES: Nc1nc2c(ncn2[C@H]2C[C@H](O)[C@@H](CO)O2)c(=S)[nH]1 [6-thio-dG, 6-thio-2′-deoxyguanosine]
- tumor growth: slowed, but did not completely abrogated tumor growth
- tumor growth (listed as 6-Thio-dG): slowed the growth of tumors
- reduction in tumor volume (6-Thio-dG 2.5 mg/kg, after 14 days of treatment): approximately 50%
